{"source": "ChEMBL document CHEMBL6177983", "about": "“PSMA-Guided PROTAC Degraders for Tumor-Specific Protein Degradation in Prostate Cancer” (J Med Chem, 2025)", "key": {"LNCaP [1]": {"test_system": "LNCaP", "test": "Cytotoxicity against human LNCaP cells assessed as cell viability incubated for 72 hrs by CCK-8 assay", "format": "functional, cell-based"}, "DU-145": {"test_system": "DU-145", "test": "Cytotoxicity against human DU-145 cells assessed as cell viability incubated for 72 hrs by CCK-8 assay", "format": "functional, cell-based"}, "LNCaP [2]": {"test_system": "LNCaP", "test": "Antitumor activity against human LNCaP cells xenografted in BALB/c mouse assessed as tumor growth inhibition at 1.02 mmol/L, iv administered every day for 21 days", "format": "functional", "conditions": "504 h, time 21 day, read-out: TGI"}, "HEK-293T": {"test_system": "HEK-293T", "test": "Cytotoxicity against HEK293T cells assessed as cell viability incubated for 72 hrs by CCK-8 assay", "format": "toxicity, cell-based", "conditions": "human"}, "Mus musculus": {"test_system": "Mus musculus", "test": "In vivo PROTAC activity at BRD4/VHL in BALB/c mouse xenografted with human LNCaP cells assessed as reduction in AR level in tumor at 1 mmol/L, iv measured for 3 days by Western blot analysis", "format": "functional, organism-based", "conditions": "time 3.0 day"}, "VCaP": {"test_system": "VCaP", "test": "Cytotoxicity against human VCaP cells assessed as cell viability incubated for 72 hrs by CCK-8 assay", "format": "functional, cell-based"}, "CWR22R": {"test_system": "CWR22R", "test": "Cytotoxicity against human 22Rv1 cells assessed as cell viability incubated for 72 hrs by CCK-8 assay", "format": "functional, cell-based"}, "LNCaP [3]": {"test_system": "LNCaP", "test": "Antitumor activity against human LNCaP cells xenografted in BALB/c mouse assessed as tumor growth inhibition at 0.51 mmol/L, iv administered every day for 21 days", "format": "functional", "conditions": "504 h, time 21 day, read-out: TGI"}, "J82": {"test_system": "J82", "test": "Cytotoxicity against human J82 cells assessed as cell viability incubated for 72 hrs by CCK-8 assay", "format": "functional, cell-based"}, "LNCaP [4]": {"test_system": "LNCaP", "test": "animal or person", "conditions": "Mus musculus, po, 504 h, read-out: TGI", "description": "Antitumor activity against human LNCaP cells xenografted in BALB/c mouse assessed as tumor growth inhibition at 10 mg/kg, po administered every day for 21 days"}, "[5]": {"biological_target": "T1, von Hippel-Lindau disease tumor suppressor/Bromodomain-containing protein 4 (Homo sapiens) (UniProt O60885+P40337)", "T1 sequence (P40337 whole entry, looked up, other chains not shown)": "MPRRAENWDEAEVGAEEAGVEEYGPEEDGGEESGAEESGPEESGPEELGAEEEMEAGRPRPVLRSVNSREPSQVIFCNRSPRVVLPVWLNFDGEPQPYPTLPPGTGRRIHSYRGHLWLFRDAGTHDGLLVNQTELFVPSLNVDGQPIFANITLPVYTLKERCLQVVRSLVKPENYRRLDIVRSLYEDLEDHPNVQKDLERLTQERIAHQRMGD", "test": "PROTAC activity at BRD4/VHL in human LNCaP cells assessed as induction of BRD4 degradation at 10 nM incubated for 8 hrs in presence of MLN4924 by Western blotting analysis", "format": "cell-based"}, "[6]": {"test": "Toxicity in male BALB/c mouse assessed as effect on lung weight at 0.47 mmol/L, iv administered every day for 21 days", "format": "organism-based", "conditions": "in vivo, 504 h, time 21 day"}, "[7]": {"test": "Drug concentration in male BALB/c mouse plasma at 0.14 mmol/L, iv", "format": "ADME, cell-free"}, "[8]": {"biological_target": "T1, von Hippel-Lindau disease tumor suppressor/Bromodomain-containing protein 4 (Homo sapiens)", "test": "PROTAC activity at BRD4/VHL in human VCaP cells expressing PSMA assessed as induction of BRD4 degradation incubated for 24 hrs by Western blotting analysis", "format": "cell-based", "conditions": "dose <= 100.0 nM"}, "[9]": {"biological_target": "T1, von Hippel-Lindau disease tumor suppressor/Bromodomain-containing protein 4 (Homo sapiens)", "test": "PROTAC activity at BRD4/VHL in human DU-145 cells assessed as induction of BRD4 degradation up to 100 nM incubated for 24 hrs by Western blotting analysis", "format": "cell-based"}, "[10]": {"test": "Toxicity in male BALB/c mouse assessed as effect on heart weight at 0.47 mmol/L, iv administered every day for 21 days", "format": "organism-based", "conditions": "in vivo, 504 h, time 21 day"}, "[11]": {"biological_target": "T1, von Hippel-Lindau disease tumor suppressor/Bromodomain-containing protein 4 (Homo sapiens)", "test": "PROTAC activity at BRD4/VHL in human J82 cells assessed as induction of BRD4 degradation up to 100 nM incubated for 24 hrs by Western blotting analysis", "format": "cell-based"}, "[12]": {"biological_target": "T1, von Hippel-Lindau disease tumor suppressor/Bromodomain-containing protein 4 (Homo sapiens)", "test": "PROTAC activity at BRD4/VHL in human LNCaP cells assessed as induction of BRD4 degradation at 10 nM incubated for 8 hrs in presence of MG132 by Western blotting analysis", "format": "cell-based"}, "[13]": {"test": "Half life in BALB/c mouse at 0.14 mmol/L, iv", "format": "ADME", "conditions": "in vivo"}, "[14]": {"biological_target": "T1, von Hippel-Lindau disease tumor suppressor/Bromodomain-containing protein 4 (Homo sapiens)", "test": "PROTAC activity at BRD4/VHL in human LNCaP cells assessed as induction of BRD4 degradation at 3 nM incubated for 24 hrs in presence of filipin by Western blotting analysis", "format": "cell-based"}, "[15]": {"biological_target": "T1, von Hippel-Lindau disease tumor suppressor/Bromodomain-containing protein 4 (Homo sapiens)", "test": "PROTAC activity at BRD4/VHL in human 22Rv1 cells expressing PSMA assessed as induction of BRD4 degradation incubated for 24 hrs by Western blotting analysis", "format": "cell-based", "conditions": "dose <= 100.0 nM"}, "[16]": {"test": "Toxicity in male BALB/c mouse assessed as effect on tumor weight at 0.47 mmol/L, iv administered every day for 21 days", "format": "organism-based", "conditions": "in vivo, 504 h, time 21 day"}, "[17]": {"test": "Toxicity in male BALB/c mouse assessed as body weight loss at 0.47 mmol/L, iv administered every day for 21 days", "format": "organism-based", "conditions": "in vivo, 504 h, time 21 day"}, "[18]": {"biological_target": "T1, von Hippel-Lindau disease tumor suppressor/Bromodomain-containing protein 4 (Homo sapiens)", "test": "PROTAC activity at BRD4/VHL in human LNCaP cells assessed as induction of BRD4 degradation at 10 nM incubated for 8 hrs in presence of VH032 by Western blotting analysis", "format": "cell-based"}, "LNCaP [19]": {"test_system": "LNCaP", "test": "Antitumor activity against human LNCaP cells xenografted in BALB/c mouse assessed as tumor growth inhibition at 0.47 mmol/L, iv administered every day for 21 days", "format": "functional", "conditions": "504 h, time 21 day, read-out: TGI"}, "[20]": {"biological_target": "T1, von Hippel-Lindau disease tumor suppressor/Bromodomain-containing protein 4 (Homo sapiens)", "test": "PROTAC activity at BRD4/VHL in human LNCaP cells expressing PSMA assessed as induction of BRD4 degradation incubated for 24 hrs by Western blotting analysis", "format": "cell-based", "conditions": "dose <= 100.0 nM"}, "[21]": {"test": "Toxicity in male BALB/c mouse assessed as effect on liver weight at 0.47 mmol/L, iv administered every day for 21 days", "format": "organism-based", "conditions": "in vivo, 504 h, time 21 day"}, "[22]": {"biological_target": "T1, von Hippel-Lindau disease tumor suppressor/Bromodomain-containing protein 4 (Homo sapiens)", "test": "PROTAC activity at BRD4/VHL in HEK293 cells assessed as induction of BRD4 degradation up to 100 nM incubated for 24 hrs by Western blotting analysis", "format": "cell-based"}, "[23]": {"test": "Drug concentration in male BALB/c mouse Tumor at 0.14 mmol/L, iv", "format": "ADME, tissue-based, Neoplasm", "conditions": "in vivo"}, "[24]": {"biological_target": "T1, von Hippel-Lindau disease tumor suppressor/Bromodomain-containing protein 4 (Homo sapiens)", "test": "PROTAC activity at BRD4/VHL PSMA knockdown in human LNCaP cells assessed as induction of BRD4 degradation at 3 nM incubated for 12 hrs by Western blotting analysis", "format": "cell-based"}, "[25]": {"test": "Toxicity in male BALB/c mouse assessed as effect on spleen weight at 0.47 mmol/L, iv administered every day for 21 days", "format": "organism-based", "conditions": "in vivo, 504 h, time 21 day"}, "[26]": {"test": "Toxicity in male BALB/c mouse assessed as effect on kidney weight at 0.47 mmol/L, iv administered every day for 21 days", "format": "organism-based", "conditions": "in vivo, 504 h, time 21 day"}}, "note": "Activity calls are given as the source filed them. The rule behind the calls is not given here."}
{"smiles": "Cc1ncsc1-c1ccc([C@H](C)NC(=O)[C@@H]2C[C@@H](O)CN2C(=O)[C@@H](NC(=O)COCCCOCCNC(=O)C[C@@H]2N=C(c3ccc(Cl)cc3)c3c(sc(C)c3C)-n3c(C)nnc32)C(C)(C)C)cc1", "values": [{"measurement": "Activity", "setting": "LNCaP [1]", "result": "Active"}, {"measurement": "Activity", "setting": "DU-145", "result": "Active"}, {"measurement": "inhibition in vivo at 1020 µM", "setting": "LNCaP [2]", "result": 65.2, "unit": "%"}, {"measurement": "Activity", "setting": "HEK-293T", "result": "Toxic"}, {"measurement": "Activity", "setting": "Mus musculus", "result": "Active"}, {"measurement": "Activity", "setting": "VCaP", "result": "Active"}, {"measurement": "Activity", "setting": "CWR22R", "result": "Active"}, {"measurement": "inhibition in vivo at 510 µM", "setting": "LNCaP [3]", "result": 56.2, "unit": "%"}, {"measurement": "Activity", "setting": "J82", "result": "Active"}]}
{"smiles": "CNC(=O)c1ccc(N2C(=S)N(c3ccc(C#N)c(C(F)(F)F)c3)C(=O)C2(C)C)cc1F", "note": "[ENZALUTAMIDE]", "values": [{"measurement": "inhibition in vivo at 10 mg/kg", "setting": "LNCaP [4]", "result": 59.5, "unit": "%"}]}
{"smiles": "Cc1ncsc1-c1ccc([C@H](C)NC(=O)[C@@H]2C[C@@H](OC(=O)CCCc3cn(CCCNC(=O)[C@H](Cc4ccc(O)cc4)NC(=O)[C@H](Cc4ccccc4)NC(=O)CCC(=O)NCCCCCC(=O)N(CCCC[C@H](NC(=O)N[C@@H](CCC(=O)O)C(=O)O)C(=O)O)Cc4cccc(Cl)c4)nn3)CN2C(=O)[C@@H](NC(=O)COCCCOCCNC(=O)C[C@@H]2N=C(c3ccc(Cl)cc3)c3c(sc(C)c3C)-n3c(C)nnc32)C(C)(C)C)cc1", "values": [{"measurement": "Activity", "setting": "[5]", "result": "Active"}, {"measurement": "Activity", "setting": "[6]", "result": "Non-toxic"}, {"measurement": "Cp", "setting": "[7]", "result": "Active"}, {"measurement": "Activity", "setting": "DU-145", "result": "inactive"}, {"measurement": "Activity", "setting": "[8]", "result": "Dose-dependent-effect"}, {"measurement": "Activity", "setting": "[9]", "result": "inactive"}, {"measurement": "Activity", "setting": "[10]", "result": "Non-toxic"}, {"measurement": "Activity", "setting": "[11]", "result": "inactive"}, {"measurement": "Activity", "setting": "[12]", "result": "Active"}, {"measurement": "half-life", "setting": "[13]", "result": 4.19, "unit": "h"}, {"measurement": "Activity", "setting": "[14]", "result": "Active"}, {"measurement": "Activity", "setting": "[15]", "result": "Dose-dependent-effect"}, {"measurement": "Activity", "setting": "[16]", "result": "Non-toxic"}, {"measurement": "Activity", "setting": "[17]", "result": "Non-toxic"}, {"measurement": "Activity", "setting": "HEK-293T", "result": "Non-toxic"}, {"measurement": "Activity", "setting": "[18]", "result": "Active"}, {"measurement": "inhibition in vivo at 470 µM", "setting": "LNCaP [19]", "result": 88.6, "unit": "%"}, {"measurement": "Activity", "setting": "[20]", "result": "Dose-dependent-effect"}, {"measurement": "Activity", "setting": "[21]", "result": "Non-toxic"}, {"measurement": "Activity", "setting": "[22]", "result": "inactive"}, {"measurement": "Drug uptake", "setting": "[23]", "result": "Active"}, {"measurement": "Activity", "setting": "J82", "result": "inactive"}, {"measurement": "Activity", "setting": "[24]", "result": "Active"}, {"measurement": "Activity", "setting": "[25]", "result": "Non-toxic"}, {"measurement": "Activity", "setting": "[26]", "result": "Non-toxic"}]}
